Reference: publication PMC6050298, “Highly active enzymes by automated combinatorial backbone assembly and sequence design” (Nature Communications, 2018)

Key:
xyl3.2 = test system: T1, xyl3.2; test: 4-nitrophenol release, […] nm, Michaelis-Menten fit; assay type: biochemical, synthetic construct; conditions: 37 °C, 50 mM Tris pH 6.5, 150 mM NaCl; MBP fusion
T1 construct: computational design (112 mutations to nearest natural protein), N-terminal His6-MBP fusion kept

[1] = biological target: T2, GH10 from S. lividans (PDB ID 1E0V) (Streptomyces lividans, UniProt P26514); test: 4-nitrophenol release, […] nm; assay type: biochemical; conditions: 37 °C, 50 mM Tris pH 6.5, 150 mM NaCl; MBP fusion
T2 construct: gene xlnA; synthetic codon-optimised gene, N-terminal His6-MBP fusion kept in assay, E. coli BL21 DE3; probably catalytic domain as in 1E0V
T2 sequence (P26514 42-354): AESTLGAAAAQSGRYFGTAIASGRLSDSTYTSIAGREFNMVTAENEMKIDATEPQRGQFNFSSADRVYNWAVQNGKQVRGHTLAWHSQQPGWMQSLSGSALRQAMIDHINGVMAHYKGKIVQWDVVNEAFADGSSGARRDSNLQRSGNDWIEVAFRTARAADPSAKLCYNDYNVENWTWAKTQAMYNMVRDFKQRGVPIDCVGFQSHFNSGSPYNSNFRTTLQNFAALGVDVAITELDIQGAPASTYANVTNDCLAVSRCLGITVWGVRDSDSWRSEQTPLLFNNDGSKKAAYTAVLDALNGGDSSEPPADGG

pll4.1 = test system: T3, pll4.1; assay type: biochemical, synthetic construct
T3 construct: computational design (85 mutations to nearest natural protein), N-terminal His6-MBP fusion kept

pll2.2 = test system: T4, pll2.2; assay type: biochemical, synthetic construct
T4 construct: computational design (54 mutations to nearest natural protein), N-terminal His6-MBP fusion kept

pll2.4 = test system: T5, pll2.4; assay type: biochemical, synthetic construct
T5 construct: computational design (60 mutations to nearest natural protein), N-terminal His6-MBP fusion kept

Structure (SMILES)	Km (xyl3.2)	kcat/KM [1]	Km (pll4.1)	Km (pll2.2)	Km (pll2.4)
O=[N+]([O-])c1ccc(O[C@@H]2OC[C@@H](O[C@@H]3OC[C@@H](O)[C@H](O)[C@H]3O)[C@H](O)[C@H]2O)cc1 [4-nitrophenyl β-xylobioside]	160 ± 20 µM	Catalytic efficiency of GH10 designs with OPNPX2 compared to natural GH10 enzymes	–	–	–
CCCCSC1CCC(=O)O1 (centres unmarked) [5-thiobutyl butyrolactone]	–	–	350 µM	180 µM	82 µM
